Laboratory results from publication PMC6350621, “Small-molecules that covalently react with a human prolyl hydroxylase – towards activity modulation and substrate capture” (Chemical Communications (Cambridge, England), 2018).

Key:
PHD2 [1] = system: PHD2; parameters: method as in PMID 16782814; details: reversible iron-binding inhibitor; cited from earlier work
PHD2_181–426 = biological target: T1, PHD2_181–426 (Homo sapiens, UniProt Q9GZT9); test: Non-denaturing ESI-MS of covalent adduct formation with PHD2; type: binding; details: for covalent modification of PHD2: analogues of 1/2, compared with 1/2; for condensation (covalent adduct) with PHD2 after 5 min: equimolar PHD2 (20 μM), Fe(II) and compound; for covalent reaction with PHD2 after 20 min: equimolar PHD2 and Fe(II), cone voltage 200 V
T1 construct: PHD2_181–426 (hereafter PHD2); His6 (N, cleaved yes); made in house; host or cells: bacterial culture (2x TY, kanamycin, IPTG)
T1 sequence (Q9GZT9 181-426): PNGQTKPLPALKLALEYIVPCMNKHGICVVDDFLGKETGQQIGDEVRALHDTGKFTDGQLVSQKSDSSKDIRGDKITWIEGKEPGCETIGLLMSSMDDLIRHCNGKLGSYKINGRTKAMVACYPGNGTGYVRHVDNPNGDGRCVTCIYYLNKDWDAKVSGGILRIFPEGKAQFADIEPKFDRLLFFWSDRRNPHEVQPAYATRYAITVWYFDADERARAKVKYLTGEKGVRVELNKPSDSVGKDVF
Protocol: The interaction of the ligands with PHD2_181–426 (hereafter PHD2) was examined by non-denaturing ESI-MS, using cone voltage variation to distinguish covalent and non-covalent complexes (non-covalent interactions are typically preserved at cone voltages of 50–80 V, and dissociated at 200 V).[16]–[18] Aldehydes 1 and 2 were incubated with equimolar PHD2 and Fe(II) (37 °C; 5 or 20 min). […] Without Fe(II), neither covalent nor non-covalent adducts were observed, implying covalent conjugation involves active site Fe(II) binding, with subsequent condensation.
Fig. S2 A) Schematic representation of the assigned species formed on addition of 1 or 2 to PHD2. The results support initial non-covalent binding of the inhibitors to PHD2.Fe(II) to form B. Subsequently, condensation of a lysine residue with the aldehyde forms the covalent adduct C. (B) and (C): Non-denaturing ESI-MS data support the covalent crosslinking of 1/2 with PHD2. Conditions: PHD2 (20 µM) was incubated (37 °C, 5 or 20 min) with equimolar FeSO4 and 1 or 2, and the resulting mixtures were analysed by ESI-MS (cone voltage: 50 V or 200 V). Labelled peaks correspond to: A: Unmodified PHD2.Fe. B: Non-covalent adduct PHD2.Fe.2. C: Covalent adduct PHD2.Fe.1/2.
Fig. S6 The α,β-unsaturated amide 3 can covalently modify PHD2. (A) Schematic representation of the adducts formed upon incubation of 3 with PHD2.
PHD2. PHD2 (20 µM) was incubated (37 °C, 5 min, 1 h or 2 h) with equimolar FeSO4 and 3 or 4 before analysis by ESI-MS (cone voltage: 50 V or 200 V). Labelled peaks correspond to the following assigned complexes: A: unmodified PHD2.Fe; B: the non-covalent PHD2.Fe.3 adduct; C: the covalent PHD2.Fe.3 adduct.
2. Experimental procedures
1.1.1 Non-denaturing mass spectrometry1
Apo PHD2 was desalted using a Bio-Spin 6 Column (Bio-Rad, Hemel Hempstead, UK) into 15 mM ammonium acetate (pH 7.5). The stock solution was diluted with the same buffer to a final concentration of 100 μM. FeSO4·7H2O was dissolved in 20 mM HCl at a concentration of 100 mM. This solution was then diluted with MilliQ purified water to give a final working concentration of 100 μM. The protein was mixed with the Fe(II) solution and the inhibitor solution to give final concentrations of 20 μM PHD2, 20 μM Fe(II), and 20 μM inhibitor. The resultant solution was incubated for the appropriate time (specified in the text) at 37 […]
(5 min or 20 min) at 37 °C. After incubation, the samples were immediately analysed by ESI-MS. Data were acquired using a Q-TOF mass spectrometer (Q-TOF micro, Micromass, Altrincham, UK) interfaced with a Nanomate (Advion Biosciences, Ithaca, NY, USA) with a chip voltage of 1.70 kV and a delivery pressure 0.5 psi (1 psi = […]). The sample cone voltage was typically 200 or 50 V with a source temperature of 40 °C and with an acquisition/scan time of 10s/1s. Sample acquisition was performed in positive ion mode in the range of 2000-4000 m/z. The pressure at the interface between the atmospheric source and the high vacuum region was fixed at 6.30 mbar. External instrument calibration was achieved using sodium iodide.

PHD2 [2] = biological target: T2, PHD2 (Homo sapiens, UniProt Q9GZT9); test: Peptide turnover assay (CODD hydroxylation) with MALDI-MS detection; type: biochemical; details: >95% crosslinked PHD2·Fe·compound, 30 µM compound kept in the assay
T2 construct: PHD2_181–426 (hereafter PHD2); His6 (N, cleaved yes); made in house; host or cells: bacterial culture (2x TY, kanamycin, IPTG)
T2 sequence (Q9GZT9 181-426): as above

PHD2 (residues 181-426) [3] = biological target: T3, PHD2 (residues 181-426) (Homo sapiens, UniProt Q9GZT9); test: biochemical
T3 sequence (Q9GZT9 181-426): as above

PHD2 (residues 181-426) [4] = biological target: T3, PHD2 (residues 181-426); test: AlphaScreen antibody based PHD2 inhibition assay; details: preincubated versus not
HIF-1α in HeLa cells = test: HIF-1α levels in HeLa cells by anti-HIF-1α immunoblotting; details: 6 h
KDM4A = biological target: T4, KDM4A (Homo sapiens, UniProt O75164); test: AlphaScreen assay KDM4A
T4 sequence (O75164 1-1064): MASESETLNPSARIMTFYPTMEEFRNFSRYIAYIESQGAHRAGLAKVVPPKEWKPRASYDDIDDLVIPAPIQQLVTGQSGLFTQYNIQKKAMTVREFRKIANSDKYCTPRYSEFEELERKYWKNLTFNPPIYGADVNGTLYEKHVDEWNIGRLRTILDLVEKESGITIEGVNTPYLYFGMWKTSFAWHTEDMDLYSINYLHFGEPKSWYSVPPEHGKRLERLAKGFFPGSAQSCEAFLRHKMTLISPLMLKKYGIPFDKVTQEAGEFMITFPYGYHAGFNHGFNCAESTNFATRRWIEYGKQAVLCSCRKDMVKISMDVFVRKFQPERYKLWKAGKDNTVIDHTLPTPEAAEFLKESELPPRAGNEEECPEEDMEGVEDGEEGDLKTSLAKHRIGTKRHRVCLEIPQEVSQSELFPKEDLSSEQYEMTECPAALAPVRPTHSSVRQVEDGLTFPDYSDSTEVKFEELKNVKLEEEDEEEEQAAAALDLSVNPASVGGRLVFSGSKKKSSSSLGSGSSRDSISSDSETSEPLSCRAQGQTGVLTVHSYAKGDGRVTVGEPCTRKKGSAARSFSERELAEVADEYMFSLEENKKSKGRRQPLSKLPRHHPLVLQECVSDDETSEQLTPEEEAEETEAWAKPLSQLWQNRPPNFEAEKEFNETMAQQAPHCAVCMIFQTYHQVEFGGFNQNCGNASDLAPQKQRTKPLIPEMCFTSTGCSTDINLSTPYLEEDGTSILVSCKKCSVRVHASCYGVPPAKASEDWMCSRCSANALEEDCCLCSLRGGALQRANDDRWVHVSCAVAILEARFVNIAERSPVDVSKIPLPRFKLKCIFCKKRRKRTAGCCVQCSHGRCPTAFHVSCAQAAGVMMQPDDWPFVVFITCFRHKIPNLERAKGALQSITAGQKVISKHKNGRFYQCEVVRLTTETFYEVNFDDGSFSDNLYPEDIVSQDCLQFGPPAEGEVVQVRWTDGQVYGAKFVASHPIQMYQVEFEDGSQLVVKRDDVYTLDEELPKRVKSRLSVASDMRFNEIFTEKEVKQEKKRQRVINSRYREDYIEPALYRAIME

KDM4D = biological target: T5, KDM4D (Homo sapiens, UniProt Q6B0I6); test: AlphaScreen assay KDM4D
T5 sequence (Q6B0I6 1-523): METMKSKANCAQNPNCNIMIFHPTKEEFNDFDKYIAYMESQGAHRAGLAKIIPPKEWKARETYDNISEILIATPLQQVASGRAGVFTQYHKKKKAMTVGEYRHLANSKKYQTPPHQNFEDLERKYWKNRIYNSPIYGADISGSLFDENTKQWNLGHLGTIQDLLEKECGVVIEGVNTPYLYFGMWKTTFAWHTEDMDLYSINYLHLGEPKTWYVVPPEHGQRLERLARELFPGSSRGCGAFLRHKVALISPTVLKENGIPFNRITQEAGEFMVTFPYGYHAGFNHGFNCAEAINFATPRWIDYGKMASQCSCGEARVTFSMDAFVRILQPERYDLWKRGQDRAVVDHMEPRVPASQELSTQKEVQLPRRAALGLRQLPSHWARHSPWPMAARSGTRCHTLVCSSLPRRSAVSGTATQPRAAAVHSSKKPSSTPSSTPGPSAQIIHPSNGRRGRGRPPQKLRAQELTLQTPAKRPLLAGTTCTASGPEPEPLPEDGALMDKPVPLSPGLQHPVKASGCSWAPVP

KDM5B = KDM5B (Homo sapiens, UniProt Q9UGL1); test: AlphaScreen assay KDM5B
Chain of KDM5B (Q9UGL1 whole entry, species assumed): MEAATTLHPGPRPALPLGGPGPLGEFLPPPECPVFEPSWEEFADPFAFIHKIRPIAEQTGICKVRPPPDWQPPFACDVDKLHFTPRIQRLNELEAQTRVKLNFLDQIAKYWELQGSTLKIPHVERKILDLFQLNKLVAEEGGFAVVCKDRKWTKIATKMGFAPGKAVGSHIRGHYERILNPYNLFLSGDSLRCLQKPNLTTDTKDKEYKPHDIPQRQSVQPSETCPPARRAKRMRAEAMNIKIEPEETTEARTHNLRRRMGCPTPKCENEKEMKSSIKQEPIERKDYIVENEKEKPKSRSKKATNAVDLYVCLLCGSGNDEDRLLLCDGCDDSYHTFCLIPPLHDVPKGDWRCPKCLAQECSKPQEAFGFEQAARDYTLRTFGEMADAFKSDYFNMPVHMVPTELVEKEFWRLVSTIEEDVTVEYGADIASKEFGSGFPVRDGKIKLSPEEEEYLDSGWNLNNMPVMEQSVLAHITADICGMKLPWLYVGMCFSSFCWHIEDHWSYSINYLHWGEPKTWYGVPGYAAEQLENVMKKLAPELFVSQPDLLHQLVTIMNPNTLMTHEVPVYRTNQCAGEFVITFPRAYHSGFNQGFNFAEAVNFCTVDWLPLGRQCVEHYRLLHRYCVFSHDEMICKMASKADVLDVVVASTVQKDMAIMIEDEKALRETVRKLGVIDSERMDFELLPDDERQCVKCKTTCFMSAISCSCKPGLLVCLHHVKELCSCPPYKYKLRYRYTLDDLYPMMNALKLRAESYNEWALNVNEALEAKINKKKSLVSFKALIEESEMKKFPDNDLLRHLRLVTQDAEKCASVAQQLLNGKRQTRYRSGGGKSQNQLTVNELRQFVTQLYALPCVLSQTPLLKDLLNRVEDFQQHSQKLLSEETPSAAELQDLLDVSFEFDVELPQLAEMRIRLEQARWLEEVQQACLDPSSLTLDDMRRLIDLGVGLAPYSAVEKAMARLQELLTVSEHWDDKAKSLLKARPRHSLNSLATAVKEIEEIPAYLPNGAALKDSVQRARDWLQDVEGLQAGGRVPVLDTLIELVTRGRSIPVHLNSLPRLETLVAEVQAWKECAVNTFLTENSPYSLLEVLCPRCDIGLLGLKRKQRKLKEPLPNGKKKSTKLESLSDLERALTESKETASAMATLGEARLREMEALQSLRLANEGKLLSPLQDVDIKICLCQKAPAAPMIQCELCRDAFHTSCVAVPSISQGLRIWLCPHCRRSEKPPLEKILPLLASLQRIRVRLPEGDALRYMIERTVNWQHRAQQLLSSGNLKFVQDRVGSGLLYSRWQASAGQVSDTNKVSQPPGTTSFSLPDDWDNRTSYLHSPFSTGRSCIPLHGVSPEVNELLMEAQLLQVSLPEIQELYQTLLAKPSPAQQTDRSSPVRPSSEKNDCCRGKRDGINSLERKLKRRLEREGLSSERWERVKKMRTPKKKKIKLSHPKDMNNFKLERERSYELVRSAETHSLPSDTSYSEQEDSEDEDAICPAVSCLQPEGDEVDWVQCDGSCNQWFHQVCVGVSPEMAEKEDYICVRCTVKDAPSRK

KDM6B = KDM6B (Homo sapiens, UniProt O15054); test: AlphaScreen assay KDM6B
Chain of KDM6B (O15054 whole entry, species assumed): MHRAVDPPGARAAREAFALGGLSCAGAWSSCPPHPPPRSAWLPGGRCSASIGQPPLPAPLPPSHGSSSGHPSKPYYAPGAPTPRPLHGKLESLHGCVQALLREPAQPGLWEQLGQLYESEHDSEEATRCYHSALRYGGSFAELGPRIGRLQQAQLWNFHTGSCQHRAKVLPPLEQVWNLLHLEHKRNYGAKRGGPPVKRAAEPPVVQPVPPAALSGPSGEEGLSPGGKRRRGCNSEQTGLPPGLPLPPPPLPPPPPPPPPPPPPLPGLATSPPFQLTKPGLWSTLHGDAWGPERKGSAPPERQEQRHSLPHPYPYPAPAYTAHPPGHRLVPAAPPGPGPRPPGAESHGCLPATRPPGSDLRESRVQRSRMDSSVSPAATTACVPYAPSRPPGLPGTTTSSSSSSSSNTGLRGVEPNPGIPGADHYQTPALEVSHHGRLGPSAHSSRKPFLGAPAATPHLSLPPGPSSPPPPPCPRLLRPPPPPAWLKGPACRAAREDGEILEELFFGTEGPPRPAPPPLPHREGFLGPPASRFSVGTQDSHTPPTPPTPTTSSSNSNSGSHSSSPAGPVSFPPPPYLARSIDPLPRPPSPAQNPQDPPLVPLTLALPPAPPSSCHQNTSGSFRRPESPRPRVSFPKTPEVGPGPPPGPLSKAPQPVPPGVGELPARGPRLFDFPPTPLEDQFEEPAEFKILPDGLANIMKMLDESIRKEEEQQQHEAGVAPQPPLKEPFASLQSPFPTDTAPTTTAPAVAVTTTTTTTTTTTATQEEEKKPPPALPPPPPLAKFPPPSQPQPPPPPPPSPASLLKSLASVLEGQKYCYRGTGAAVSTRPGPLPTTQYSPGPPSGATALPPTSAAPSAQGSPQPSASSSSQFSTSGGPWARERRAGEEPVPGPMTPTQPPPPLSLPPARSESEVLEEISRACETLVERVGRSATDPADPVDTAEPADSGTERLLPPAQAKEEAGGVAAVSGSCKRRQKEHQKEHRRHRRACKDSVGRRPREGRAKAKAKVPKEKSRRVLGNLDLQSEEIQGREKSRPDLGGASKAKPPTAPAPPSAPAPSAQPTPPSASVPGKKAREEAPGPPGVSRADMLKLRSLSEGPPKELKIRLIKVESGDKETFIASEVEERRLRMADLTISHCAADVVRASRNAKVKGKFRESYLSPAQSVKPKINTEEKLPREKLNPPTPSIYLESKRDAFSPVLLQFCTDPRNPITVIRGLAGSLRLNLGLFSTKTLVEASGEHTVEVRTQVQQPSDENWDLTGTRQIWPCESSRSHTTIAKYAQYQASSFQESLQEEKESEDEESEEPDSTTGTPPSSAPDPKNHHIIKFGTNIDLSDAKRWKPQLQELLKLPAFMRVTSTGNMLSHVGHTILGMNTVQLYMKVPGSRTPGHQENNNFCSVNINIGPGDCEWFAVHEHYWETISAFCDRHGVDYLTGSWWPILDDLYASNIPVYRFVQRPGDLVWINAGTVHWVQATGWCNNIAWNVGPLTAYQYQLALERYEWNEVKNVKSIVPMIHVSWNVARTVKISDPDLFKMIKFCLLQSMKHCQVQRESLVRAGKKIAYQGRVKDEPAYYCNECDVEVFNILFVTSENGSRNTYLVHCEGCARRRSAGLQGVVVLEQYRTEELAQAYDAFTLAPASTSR

Structure (SMILES): O=Cc1ccc(O)c(C(=O)NCC(=O)O)c1 [S1]
- covalent modification of PHD2 (PHD2_181–426): No covalent modification

Structure (SMILES): O=Cc1cccc(C(=O)NCC(=O)O)n1 [S4]
- covalent modification of PHD2 (PHD2_181–426): Some apparent covalent modification

Structure (SMILES): O=Cc1cccc(C(=O)NCC(=O)O)c1O [compound 1]
- condensation (covalent adduct) with PHD2 after 5 min (PHD2_181–426; 37 °C): complete condensation
- covalent reaction with PHD2 after 20 min (PHD2_181–426; 37 °C): react with PHD2
- catalytic activity (CODD hydroxylation) of PHD2 covalently modified by the compound (PHD2 [2]): apparently active
- IC50 (PHD2 (residues 181-426) [3]): > 100 µM
- drop of IC50 on preincubation (PHD2 (residues 181-426) [4]): ~2 fold
- HIF-1α upregulation in HeLa cells (HIF-1α in HeLa cells; 50 or 250 µM): no upregulation of HIF-1α

Structure (SMILES): O=Cc1c(O)c(C(=O)NCC(=O)O)cc2ccccc12 [compound 2]
- condensation (covalent adduct) with PHD2 after 5 min (PHD2_181–426; 37 °C): ~30%
- covalent reaction with PHD2 after 20 min (PHD2_181–426; 37 °C): react with PHD2
- catalytic activity (CODD hydroxylation) of PHD2 covalently modified by the compound (PHD2 [2]): apparently active
- IC50 (PHD2 (residues 181-426) [3]): > 100 µM
- drop of IC50 on preincubation (PHD2 (residues 181-426) [4]): ~2 fold
- HIF-1α upregulation in HeLa cells (HIF-1α in HeLa cells; 50 or 250 µM): no upregulation of HIF-1α

Structure (SMILES): C=CCc1cccc(C(=O)NCC(=O)O)c1O [compound 4]
- covalent adduct with PHD2 after up to 2 h (PHD2_181–426; equimolar PHD2/Fe(II), 37 °C, up to 2 h): No covalent adduct

Structure (SMILES): CCOC(=O)CNC(=O)c1cccc(C=O)c1O [compound 5]
- HIF-1α upregulation in HeLa cells (HIF-1α in HeLa cells; 0-500 μM): caused upregulation of HIF-1α
- HIF-1α upregulation in HeLa cells at high concentrations (HIF-1α in HeLa cells; >250 μM): more pronounced HIF-1α upregulation

Structure (SMILES): C=CC(=O)Nc1cc(N=[N+]=[N-])cc(C(=O)NCC(=O)O)c1O [compound 7]
- IC50 (KDM4A): 18.2 µM
- IC50 (KDM4D): 10.3 µM
- IC50 (KDM5B): 13.6 µM
- IC50 (KDM6B): 8.4 µM
